Test results from ChEMBL document CHEMBL1141884 (Bioorg Med Chem Lett, 2005).

Columns and labels:
Acetylcholinesterase [1] = molecular target: T1, Acetylcholinesterase (Homo sapiens, UniProt P22303); test: Inhibitory concentration against Acetylcholinesterase activity
Cholinesterase = Cholinesterase (Homo sapiens, UniProt P06276)
Description: Inhibitory concentration against Butyrylcholinesterase activity

Acetylcholinesterase [2] = molecular target: T1, Acetylcholinesterase; test: Binding affinity for Acetylcholinesterase
[3] = substrate: COc1ccc(-c2cc3c(c(=O)o2)C[C@@]2(O)[C@@]4(C)CCC(=O)OC(C)(C)[C@@]4(O)CC[C@@]2(C)O3)cc1; test: Michaelis-Menten constant for affinity against Acetylcholinesterase

Cholinesterase, sequence (P06276 whole entry): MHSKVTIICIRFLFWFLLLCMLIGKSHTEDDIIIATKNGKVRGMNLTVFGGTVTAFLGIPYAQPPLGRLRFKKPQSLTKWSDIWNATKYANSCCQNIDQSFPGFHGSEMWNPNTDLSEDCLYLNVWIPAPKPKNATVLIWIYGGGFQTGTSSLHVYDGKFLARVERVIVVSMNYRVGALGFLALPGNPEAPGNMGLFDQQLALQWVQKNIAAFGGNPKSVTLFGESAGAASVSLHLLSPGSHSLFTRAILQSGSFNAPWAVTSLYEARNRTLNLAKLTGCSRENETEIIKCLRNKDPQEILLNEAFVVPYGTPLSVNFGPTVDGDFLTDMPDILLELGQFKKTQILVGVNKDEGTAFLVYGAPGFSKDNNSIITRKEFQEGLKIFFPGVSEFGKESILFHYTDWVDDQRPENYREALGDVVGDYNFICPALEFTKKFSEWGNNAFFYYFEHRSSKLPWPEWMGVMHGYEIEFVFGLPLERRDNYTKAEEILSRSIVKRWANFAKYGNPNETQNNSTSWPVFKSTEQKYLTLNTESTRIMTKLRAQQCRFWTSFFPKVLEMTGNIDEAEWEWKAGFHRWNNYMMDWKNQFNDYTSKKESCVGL

COC1=CC(=O)[C@]2(C)[C@]3(O)Cc4c(cc(-c5cc(OC)c(OC)c(OC)c5)oc4=O)O[C@]3(C)CC[C@]2(O)C1(C)C
IC50 (Acetylcholinesterase [1]): 420 nM
IC50 (Cholinesterase): > 200 µM

COc1ccc(-c2cc3c(c(=O)o2)C[C@@]2(O)[C@@]4(C)CCC(=O)OC(C)(C)[C@@]4(O)CC[C@@]2(C)O3)cc1
Ki (Acetylcholinesterase [2]): 2300 nM
IC50 (Cholinesterase): > 500 µM

COc1ccc(-c2cc3c(c(=O)o2)C[C@@]2(O)[C@@]4(C)CCC(=O)C(C)(C)[C@@]4(O)CC[C@@]2(C)O3)cc1
IC50 (Acetylcholinesterase [1]): 60 nM
IC50 (Cholinesterase): > 200 µM

COc1ccc(-c2cc3c(c(=O)o2)C[C@@]2(O)[C@@]4(C)C(=O)[C@@]5(OC)C(=O)O[C@]4(CC[C@@]2(C)O3)C5(C)C)cc1 [TERREULACTONE A]
IC50 (Acetylcholinesterase [1]): 230 nM
IC50 (Cholinesterase): > 200 µM

COc1ccc(-c2cc3c(c(=O)o2)C[C@@]2(O)[C@@]4(C)C=CC(=O)C(C)(C)[C@@]4(O)CC[C@@]2(C)O3)cc1
IC50 (Acetylcholinesterase [1]): 90 nM
IC50 (Cholinesterase): > 200 µM

B1: Acetylcholinesterase (Homo sapiens), P22303 (protein)
chain: MRPPQCLLHTPSLASPLLLLLLWLLGGGVGAEGREDAELLVTVRGGRLRGIRLKTPGGPVSAFLGIPFAEPPMGPRRFLPPEPKQPWSGVVDATTFQSVCYQYVDTLYPGFEGTEMWNPNRELSEDCLYLNVWTPYPRPTSPTPVLVWIYGGGFYSGASSLDVYDGRFLVQAERTVLVSMNYRVGAFGFLALPGSREAPGNVGLLDQRLALQWVQENVAAFGGDPTSVTLFGESAGAASVGMHLLSPPSRGLFHRAVLQSGAPNGPWATVGMGEARRRATQLAHLVGCPPGGTGGNDTELVACLRTRPAQVLVNHEWHVLPQESVFRFSFVPVVDGDFLSDTPEALINAGDFHGLQVLVGVVKDEGSYFLVYGAPGFSKDNESLISRAEFLAGVRVGVPQVSDLAAEAVVLHYTDWLHPEDPARLREALSDVVGDHNVVCPVAQLAGRLAAQGARVYAYVFEHRASTLSWPLWMGVPHGYEIEFIFGIPLDPSRNYTAEEKIFAQRLMRYWANFARTGDPNEPRDPKAPQWPPYTAGAQQYVSLDLRPLEVRRGLRAQACAFWNRFLPKLLSATDTLDEAERQWKAEFHRWSSYMVHWKNQFDHYSKQDRCSDL
Km [3]: 20 µM
